Here are results for five compounds from patent US20260248763A1 (BIO GENUINE (SHANGHAI) BIOTECH CO., LTD, priority 2023, published 2026).

The IC50 is the midpoint of a concentration-inhibition curve. Higher therefore signals a need for much substance.

Series [1] can be described thus: Blood-brain distribution determination in SD rats. Format: in vivo. The settings on record: female SD rats, oral, 5 mg/kg; for Kp / AUC(0-t): rat; for Kp: brain/plasma, read-out: Brain/plasma exposure ratio; for AUC(0-t): plasma, read-out: Plasma area under the curve AUC0-t. As for the experimental part: Test Example 4: Blood-Brain Distribution Determination in SD Rats
In this study, female SD rats were selected as test animals. The LC/MS/MS method was used to quantitatively determine the drug concentrations of the test compounds in plasma and brain tissues at three different time points (0.5 h, 2 h, 4 h or 6 h) after oral administration (5 mg/kg or 10 mg/kg) in rats, so as to evaluate the pharmacokinetic profile of the test drugs in rats.
The example compounds of the present disclosure, made in house.
SD rats (female, 180-220 g, 6-8 weeks old, purchased from Beijing Vital River Laboratory Animal Technology Co., Ltd., with animal production license number SCXK (Beijing) 2021-0006).
Vehicle for oral administration: 5% DMSO+95% PEG400 or a mixture of (50% Labrasol+50% Water).
The test compound, formulated as a clear solution or suspension, was administered to overnight-fasted SD rats via oral gavage. For oral gavage, blood samples (0.25 mL) were collected via jugular vein puncture at pre-dose (0 h) and 0.5 h, 2 h, 4 h or 6 h post-dose. The samples were placed into sodium heparin anticoagulant tubes. After collection, the blood samples were placed on wet ice and centrifuged within 1 hour to separate the plasma. The separated plasma was stored frozen in a −80° C. freezer. After blood collection, the animals were euthanized by cervical dislocation. The whole brain tissue was dissected out. The collected brain tissue was first rinsed with physiological saline, blotted dry with absorbent paper, and then stored frozen in a −80° C. freezer. Prior to analysis, the brain tissue samples and plasma samples were taken out from the −80° C. freezer. After the brain tissue samples were completely thawed, a given amount of brain tissue was weighed, and 50% methanol/water was added for homogenization. Drug concentrations in plasma and brain tissues were determined using the LC-MS/MS method, and the relevant pharmacokinetic parameters were calculated using the non-compartmental model with linear-log trapezoidal method in Phoenix WinNonlin 8.2.0 pharmacokinetic software.

In a further series the target is T1, V1aR (Homo sapiens, UniProt P37288).
T1 construct: expressed in transfected cells; host or cells: V1a-CHO stably transfected cell line
T1 sequence (P37288 whole entry, species assumed): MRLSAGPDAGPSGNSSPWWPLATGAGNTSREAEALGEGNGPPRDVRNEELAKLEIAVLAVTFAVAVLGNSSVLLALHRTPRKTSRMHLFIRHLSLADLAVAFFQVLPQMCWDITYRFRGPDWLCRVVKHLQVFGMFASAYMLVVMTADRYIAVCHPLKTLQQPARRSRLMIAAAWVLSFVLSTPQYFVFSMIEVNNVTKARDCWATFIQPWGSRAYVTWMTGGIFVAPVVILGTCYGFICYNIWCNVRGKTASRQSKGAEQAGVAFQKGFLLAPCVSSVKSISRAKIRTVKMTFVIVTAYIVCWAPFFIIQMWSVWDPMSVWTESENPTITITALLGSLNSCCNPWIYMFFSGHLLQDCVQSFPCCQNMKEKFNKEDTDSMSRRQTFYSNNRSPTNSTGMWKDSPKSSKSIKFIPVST
In words: Ca2+ mobilization in cells stably expressing V1aR (FLIPR, antagonist mode). Format: cell-based. As to conditions: V1a-CHO stably transfected cell line.

In the case of `CON=C1CC(CO)N(C(=O)c2ccc(-c3cccc(C#N)c3C)c3c2OCO3)C1` (single isomer, unassigned) [Example C0099], in series [1], the “Brain tissue area under the curve AUC0-t” value came to 150 ng·h/g, the Kp amounted to 0.1 and the AUC(0-t) was 1460 ng·h/mL. The compound also came in with an IC50 at V1aR of 5280 nM.

As to `CO/N=C1/C[C@@H]([C@@H](C)O)N(C(=O)c2ccc(-c3cccc(C#N)c3C)cc2)C1` (single isomer, unassigned) [Example C0112], in series [1], the “Brain tissue area under the curve AUC0-t” value turned out to be 818 ng·h/g, the Kp amounted to 0.52 and the AUC(0-t) was determined as 1570 ng·h/mL. The compound also displayed an IC50 against V1aR of 602 nM.

Take `CO/N=C1/C[C@@H](CO)N(C(=O)c2ccc(-c3cccc(C#N)c3Cl)cc2)C1` [Example A0203, 2-Chloro-3-(4-[(2S, 4Z)-2-(hydroxymethyl)-4-(methoxyimino)pyrrolidine-1-carbonyl]phenyl)benzonitrile]: in series [1], the “Brain tissue area under the curve AUC0-t” value came to 2579 ng·h/g, the Kp was found to be 0.39 and the AUC(0-t) came to 6670 ng·h/mL. On V1aR, the IC50 was determined as 1360 nM.

`CO/N=C1/C[C@@H](CO)N(C(=O)c2ccc(-c3cccc(C#N)c3C)cc2)C1` [Example C0058, (S, Z)-4′-(2-(Hydroxymethyl)-4-(methoxyimino)pyrrolidine-1-carbonyl)-2-methyl-[1,1′-biphenyl]-3-carbonitrile]: in series [1], the “Brain tissue area under the curve AUC0-t” value was 1109 ng·h/g, the Kp is 0.32 and the AUC(0-t) worked out at 3520 ng·h/mL. The same compound had an IC50 at V1aR of 2250 nM.

As for `CO/N=C1/C[C@@H](CO)N(C(=O)c2ccc(-c3cc(F)cc(C#N)c3C)c3c2OCCO3)C1` [Example C0152, (S,Z)-5-Fluoro-3-(8-(2-(hydroxymethyl)-4-(methoxyimino)pyrrolidine-1-carbonyl)-2,3-dihydrobenzo[b][1,4]dioxin-5-yl)-2-methylbenzonitrile], in series [1], the “Brain tissue area under the curve AUC0-t” value came to 169 ng·h/g, the Kp stood at 0.08 and the AUC(0-t) stood at 2050 ng·h/mL. The same compound gave an IC50 on V1aR of 9810 nM.
